Laboratory results as given in patent US5552308A, “CDNA clone of a rat serotonin transporter and protein encoded thereby” (priority 1991, dated 1996).

Columns and labels:
[1] = biological target: T1, 5-HT transporter (Rattus norvegicus, UniProt P31652); experiment: Inhibition of 3H-5-HT uptake in CV-1 cells transfected with the 5-HT transporter cDNA; type: cell-based; conditions: for inhibition of 5-HT uptake (in words): CV-1 cells transfected with 5HTT cDNA
[2] = tested on: serotonergic neurons; conditions: cited from earlier work
[3] = tested on: 5-HT transporter; conditions: cited from earlier work
[4] = biological target: T1, 5-HT transporter; experiment: 3H-5-HT uptake (saturation kinetics, ion dependence) in CV-1 cells transfected with the 5HTT cDNA; type: cell-based; conditions: read-out: Km of 3H-5-HT uptake; transfected CV-1 cells; 3H-5-HT 0.1 nM to 10 uM; 15 min; mean +/- SEM

T1 sequence (P31652 whole entry): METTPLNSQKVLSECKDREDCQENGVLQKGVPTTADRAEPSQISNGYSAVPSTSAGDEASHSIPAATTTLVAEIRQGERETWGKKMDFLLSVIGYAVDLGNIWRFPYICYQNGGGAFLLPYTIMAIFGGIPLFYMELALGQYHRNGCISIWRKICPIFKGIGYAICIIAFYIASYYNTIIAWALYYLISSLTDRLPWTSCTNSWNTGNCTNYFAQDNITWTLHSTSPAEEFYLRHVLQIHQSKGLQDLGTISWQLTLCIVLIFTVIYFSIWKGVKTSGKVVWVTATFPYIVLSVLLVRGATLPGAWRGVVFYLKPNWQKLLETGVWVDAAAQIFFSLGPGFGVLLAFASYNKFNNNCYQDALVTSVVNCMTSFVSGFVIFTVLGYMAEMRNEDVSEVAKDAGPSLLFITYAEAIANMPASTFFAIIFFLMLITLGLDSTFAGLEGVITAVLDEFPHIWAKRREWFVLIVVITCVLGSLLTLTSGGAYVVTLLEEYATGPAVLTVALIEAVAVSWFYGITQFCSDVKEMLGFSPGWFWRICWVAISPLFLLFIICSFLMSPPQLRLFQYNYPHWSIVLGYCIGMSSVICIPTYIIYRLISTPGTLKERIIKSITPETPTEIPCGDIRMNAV

| Structure (SMILES) | Ki [1] | inhibition of 5-HT uptake (in words) [1] | also measured |
| --- | --- | --- | --- |
| CNC(C)Cc1ccc2c(c1)OCO2 (racemic) [± MDMA, 3,4-Methylenedioxy-methamphetamine] | 186 ± 27 nM | potent inhibition of ^3 H-5-HT uptake | neurotoxicity to serotonergic neurons (in words) [2]: potent neurotoxin of serotonergic neurons which causes irreversible cell degeneration |
| CC(N)Cc1ccccc1 (stereo not drawn) [Amphetamine] | – | – | transport by the 5-HT transporter and release of 5-HT (in words) [3]: substrates for transport by the 5-HT transporter and stimulate release of 5-HT |
| NCCc1c[nH]c2ccc(O)cc12 [^3 H-5-HT, serotonin] | – | – | Km [4]: 0.529 ± 0.107 µM |
| COC(=O)[C@H]1[C@@H](OC(=O)c2ccccc2)C[C@@H]2CC[C@H]1N2C [cocaine] | – | relatively potent inhibitor of 5-HT uptake | – |
| NCCc1ccc(O)c(O)c1 [dopamine] | > 10000 nM | ineffective at blocking 5-HT uptake | – |
| OC1(c2ccc(Cl)cc2)c2ccccc2C2=NCCN21 (stereo not drawn) [mazindol] | 548 ± 120 nM | lower affinity for the 5-HT transporter | – |
| NC[C@H](O)c1ccc(O)c(O)c1 [noradrenaline] | > 10000 nM | ineffective at blocking 5-HT uptake | – |
